Source: article PMC11892739, “Site-specific molecular glues for the 14-3-3/Tau pS214 protein–protein interaction via reversible covalent imine tethering” (RSC Medicinal Chemistry, 2025)
Entries after “also recorded” stand apart in the source; their conditions may differ.

Legend:
[1] = target: T1, 14-3-3γ/Tau pS214 complex (Homo sapiens, UniProt P61981); assay: Differential scanning fluorimetry of 14-3-3γ with Tau pS214 peptide and compounds; format: binding; details: compound 30 equiv., Tau pS214 10 equiv.
T1 construct: made in house; host or cells: NiCo21 (DE3) E. coli
T1 sequence (P61981 whole entry, other chains not shown): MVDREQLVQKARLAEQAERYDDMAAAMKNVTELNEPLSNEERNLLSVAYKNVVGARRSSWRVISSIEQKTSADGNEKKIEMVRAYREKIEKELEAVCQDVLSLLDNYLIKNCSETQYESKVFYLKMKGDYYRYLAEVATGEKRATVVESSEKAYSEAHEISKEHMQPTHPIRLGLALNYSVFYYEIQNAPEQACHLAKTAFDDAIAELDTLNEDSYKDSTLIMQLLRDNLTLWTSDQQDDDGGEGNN
Method: Fig. 5 a Phospho-site selective 14-3-3/Tau PPI stabilization. b SF250μM of selected compounds for stabilization of the 14-3-3γ complex with Tau pS214 and Tau pS324 peptides based on the internal DMSO reference. Mean of two separately performed experiments (see ESI ^† Fig. S9 for the corresponding binding curves). c Differential scanning fluorimetry assay results. Identified melting temperatures (Tm) of 14-3-3γ in the presence of the Tau pS214 or pS324 peptide and compounds 1 and 18. […]
chromatography (HisTrap high performance cartridges, Cytiva). […] Dialyzed protein was concentrated to ∼40 mg/mL, analyzed by Q -Tof LC/MS, and aliquots were flash -frozen for storage at −80 °C. […]
DSF was performed using 40 µl samples containing 2.5 µM 14 -3-3ζ, 25 µM Tau peptide (Tau pS2, Tau pS214 or Tau pS324), […] (1% DMSO) and 5x ProteoOrange (Lumiprobe, 5000x stock in DMSO) in 10 mM HEPES, 150 mM NaCl, 50 µM TCEP (pH 7.4). […] Fluorescence intensity was determined using excitation ( λem=525/20 nm) and emission ( λex=570/20 nm) filters.
Based on these melting curves, the negative derivative melting curve is obtained from which the melting temperature Tm was determined. All described melting temperatures are based on two or three independent experiments, from which the average and standard deviations were determined. […]

14-3-3γ = 14-3-3γ (Homo sapiens, UniProt P61981); assay: 19F-NMR spectroscopy of fluorinated analogs at varying 14-3-3 concentrations; format: binding; details: 125 μM stabilizer, 14-3-3 0-250 μM, no Tau peptide
Chain of 14-3-3γ (P61981 whole entry): as the sequence (P61981 whole entry, other chains not shown) above
Method: Fig. 3 a Dose–response fluorescence anisotropy data of compound titrations to 10 nM FITC-labeled Tau pS2 peptide and 100 nM 14-3-3ζ. […] Mean of three individually performed experiments (see ESI ^† Fig. S8 for the protein titrations). e Differential scanning fluorimetry assay results. Identified melting temperatures (Tm) of 14-3-3γ alone (2.5 μM) and in the presence of Tau pS2 peptide (25 μM) and additionally with selected compounds (75 μM).
This stepwise mechanism has been described in detail for related benzaldehyde stabilizers and the 14-3-3/Pin1 interaction.[34] However, the imidazolyl-benzaldehydes might also show an intrinsic binding affinity for 14-3-3. To elucidate the underlying processes, we performed ^19F-NMR spectroscopy studies (Fig. 3f) with the fluorinated analogs 20 and 21. At a constant stabilizer concentration (125 μM), the 14-3-3 concentration was varied from 0 μM to 250 μM.

increase in 14-3-3γ melting temperature on addition of compound, Tau pS214 complex [1] [°C] | SMILES | binding to 14-3-3 by 19F-NMR (in words) (14-3-3γ)
~1.7 | CCc1ccc(-c2nccn2-c2ccc(C=O)c(Br)c2)cc1 [Compound 18] | –
– | O=Cc1ccc(-n2ccnc2-c2ccc(OC(F)(F)F)cc2)cc1Br [Compound 21] | ligand binding to 14-3-3γ; also recorded: formation of the binary 14-3-3/stabilizer complex
~0.6 | O=Cc1ccc(-n2ccnc2-c2ccccc2)cc1Br [Compound 1] | –
– | O=Cc1ccc(-n2ccnc2-c2ccc(C(F)(F)F)cc2)cc1Br [Compound 20] | formation of the binary 14-3-3/stabilizer complex
